Source: ChEMBL document CHEMBL3885861, “Open TG-GATES”

Species on record: Rattus norvegicus
Assay: Open TG-GATES - Regimen: Daily Repeat
Format: toxicity, organism-based, Sprague-Dawley
Set-up: regimen Daily Repeat, gender Male, age 6 weeks
Settings: in vivo, po, 0 mg/kg, route gavage, dose level Control; for APTT / Bas / Eos / Fbg / Hb / Ht / Lym / MCH / MCHC / MCV / Mono / Neu / PT / Plat / RBC / Ret / WBC: tissue Blood; for KIDNEY_L / KIDNEY_R / KIDNEY_TOTAL: tissue Kidney; for LIVER: tissue Liver; for A/G / ALP / ALT / AST / BUN / CRE / Ca / Cl / DBIL / GLC / IP / K / LDH / Na / PL / RALB / TBIL / TC / TG / TP / gamma-GTP: tissue Plasma

Cc1cccc(C)c1OCC(C)N (configuration not stated) [MEXILETINE]
TERMINAL_BW (72 h, time 3 day): 240.8 g | APTT (72 h, time 3 day): 20.3 s | Bas (72 h, time 3 day): 0% | Eos (72 h, time 3 day): 0.8% | Fbg (72 h, time 3 day): 302.4 mg/dL | Hb (72 h, time 3 day): 12.6 g/dL | Ht (72 h, time 3 day): 39.4% | Lym (72 h, time 3 day): 81.6% | MCH (72 h, time 3 day): 19.9 pg | MCHC (72 h, time 3 day): 32.1% | MCV (72 h, time 3 day): 61.9 fL | Mono (72 h, time 3 day): 2.8% | Neu (72 h, time 3 day): 13.8% | PT (72 h, time 3 day): 15.8 s | Plat (72 h, time 3 day): 115 x10_4/uL | RBC (72 h, time 3 day): 636.6 x10_4/ul | Ret (72 h, time 3 day): 6.3% | WBC (72 h, time 3 day): 120.4 x10_2/uL | KIDNEY_L (72 h, time 3 day): 1.1 g | KIDNEY_R (72 h, time 3 day): 1.1 g | KIDNEY_TOTAL (72 h, time 3 day): 2.2 g | LIVER (72 h, time 3 day): 11.2 g | A/G (72 h, time 3 day): 1.3 | ALP (72 h, time 3 day): 1769.2 IU/L | ALT (72 h, time 3 day): 44.8 IU/L | AST (72 h, time 3 day): 72.2 IU/L | BUN (72 h, time 3 day): 15.6 mg/dL | CRE (72 h, time 3 day): 0.1 mg/dL | Ca (72 h, time 3 day): 10.4 mg/dL | Cl (72 h, time 3 day): 106 meq/L | DBIL (72 h, time 3 day): 0 mg/dL | GLC (72 h, time 3 day): 201.2 mg/dL | IP (72 h, time 3 day): 7.6 mg/dL | K (72 h, time 3 day): 4.4 meq/L | LDH (72 h, time 3 day): 178 IU/L | Na (72 h, time 3 day): 142 meq/L | PL (72 h, time 3 day): 134 mg/dL | RALB (72 h, time 3 day): 3 g/dL | TBIL (72 h, time 3 day): 0.008 mg/dL | TC (72 h, time 3 day): 73.2 mg/dL | TG (72 h, time 3 day): 69.6 mg/dL | TP (72 h, time 3 day): 5.4 g/dL | gamma-GTP (72 h, time 3 day): 2.2 IU/L | TERMINAL_BW ([…], time 7 day): 274.3 g | TERMINAL_BW ([…], time 14 day): 321.8 g | TERMINAL_BW ([…], time 28 day): 408.3 g | APTT ([…], time 7 day): 23.4 s | Bas ([…], time 7 day): 0% | Eos ([…], time 7 day): 1% | Fbg ([…], time 7 day): 300 mg/dL | Hb ([…], time 7 day): 12.9 g/dL | Ht ([…], time 7 day): 39.7% | Lym ([…], time 7 day): 77.8% | MCH ([…], time 7 day): 20.4 pg | MCHC ([…], time 7 day): 32.5% | MCV ([…], time 7 day): 62.4 fL | Mono ([…], time 7 day): 2.8% | Neu ([…], time 7 day): 17.4% | PT ([…], time 7 day): 15.9 s | Plat ([…], time 7 day): 106.5 x10_4/uL | RBC ([…], time 7 day): 637.2 x10_4/ul | Ret ([…], time 7 day): 6% | WBC ([…], time 7 day): 115.8 x10_2/uL | APTT ([…], time 14 day): 22.2 s | Bas ([…], time 14 day): 0% | Eos ([…], time 14 day): 0.8% | Fbg ([…], time 14 day): 310.6 mg/dL | Hb ([…], time 14 day): 12.8 g/dL | Ht ([…], time 14 day): 39.4% | Lym ([…], time 14 day): 80.6% | MCH ([…], time 14 day): 21 pg | MCHC ([…], time 14 day): 32.4% | MCV ([…], time 14 day): 64.8 fL | Mono ([…], time 14 day): 1.8% | Neu ([…], time 14 day): 16.2% | PT ([…], time 14 day): 16.1 s | Plat ([…], time 14 day): 107.7 x10_4/uL | RBC ([…], time 14 day): 608.6 x10_4/ul | Ret ([…], time 14 day): 8.8% | WBC ([…], time 14 day): 96.5 x10_2/uL | APTT ([…], time 28 day): 25.3 s | Bas ([…], time 28 day): 0% | Eos ([…], time 28 day): 1% | Fbg ([…], time 28 day): 307.6 mg/dL | Hb ([…], time 28 day): 14.8 g/dL | Ht ([…], time 28 day): 43.5% | Lym ([…], time 28 day): 83.2% | MCH ([…], time 28 day): 19.2 pg | MCHC ([…], time 28 day): 34.1% | MCV ([…], time 28 day): 56.3 fL | Mono ([…], time 28 day): 1.6% | Neu ([…], time 28 day): 13.8% | PT ([…], time 28 day): 16.1 s | Plat ([…], time 28 day): 91.8 x10_4/uL | RBC ([…], time 28 day): 774.2 x10_4/ul | Ret ([…], time 28 day): 2.9% | WBC ([…], time 28 day): 104.4 x10_2/uL | KIDNEY_L ([…], time 7 day): 1.2 g | KIDNEY_R ([…], time 7 day): 1.2 g | KIDNEY_TOTAL ([…], time 7 day): 2.3 g | KIDNEY_L ([…], time 14 day): 1.3 g | KIDNEY_R ([…], time 14 day): 1.3 g | KIDNEY_TOTAL ([…], time 14 day): 2.5 g | KIDNEY_L ([…], time 28 day): 1.4 g | KIDNEY_R ([…], time 28 day): 1.5 g | KIDNEY_TOTAL ([…], time 28 day): 2.9 g | LIVER ([…], time 7 day): 13.3 g | LIVER ([…], time 14 day): 14.2 g | LIVER ([…], time 28 day): 16.9 g | A/G ([…], time 7 day): 1.1 | ALP ([…], time 7 day): 1475.8 IU/L | ALT ([…], time 7 day): 42.2 IU/L | AST ([…], time 7 day): 65 IU/L | BUN ([…], time 7 day): 20.4 mg/dL | CRE ([…], time 7 day): 0.2 mg/dL | Ca ([…], time 7 day): 10.7 mg/dL | Cl ([…], time 7 day): 105 meq/L | DBIL ([…], time 7 day): 0 mg/dL | GLC ([…], time 7 day): 200.4 mg/dL | IP ([…], time 7 day): 7.5 mg/dL | K ([…], time 7 day): 4.2 meq/L | LDH ([…], time 7 day): 152.8 IU/L | Na ([…], time 7 day): 141.4 meq/L | PL ([…], time 7 day): 152.6 mg/dL | RALB ([…], time 7 day): 3 g/dL | TBIL ([…], time 7 day): 0.002 mg/dL | TC ([…], time 7 day): 80.2 mg/dL | TG ([…], time 7 day): 113.4 mg/dL | TP ([…], time 7 day): 5.6 g/dL | gamma-GTP ([…], time 7 day): 2 IU/L | A/G ([…], time 14 day): 1.1 | ALP ([…], time 14 day): 1564.4 IU/L | ALT ([…], time 14 day): 45.6 IU/L | AST ([…], time 14 day): 68.8 IU/L | BUN ([…], time 14 day): 19 mg/dL | CRE ([…], time 14 day): 0.2 mg/dL | Ca ([…], time 14 day): 10.6 mg/dL | Cl ([…], time 14 day): 104.6 meq/L | DBIL ([…], time 14 day): 0 mg/dL | GLC ([…], time 14 day): 211.6 mg/dL | IP ([…], time 14 day): 7.1 mg/dL | K ([…], time 14 day): 4.2 meq/L | LDH ([…], time 14 day): 164.6 IU/L | Na ([…], time 14 day): 140.6 meq/L | PL ([…], time 14 day): 147.8 mg/dL | RALB ([…], time 14 day): 3 g/dL | TBIL ([…], time 14 day): 0.004 mg/dL | TC ([…], time 14 day): 70.2 mg/dL | TG ([…], time 14 day): 143 mg/dL | TP ([…], time 14 day): 5.8 g/dL | gamma-GTP ([…], time 14 day): 2.2 IU/L | A/G ([…], time 28 day): 0.9 | ALP ([…], time 28 day): 1046.8 IU/L | ALT ([…], time 28 day): 37.2 IU/L | AST ([…], time 28 day): 61.8 IU/L | BUN ([…], time 28 day): 19.2 mg/dL | CRE ([…], time 28 day): 0.2 mg/dL | Ca ([…], time 28 day): 10.5 mg/dL | Cl ([…], time 28 day): 104.2 meq/L | DBIL ([…], time 28 day): 0 mg/dL | GLC ([…], time 28 day): 194.8 mg/dL | IP ([…], time 28 day): 6.6 mg/dL | K ([…], time 28 day): 3.8 meq/L | LDH ([…], time 28 day): 132.8 IU/L | Na ([…], time 28 day): 143.2 meq/L | PL ([…], time 28 day): 135 mg/dL | RALB ([…], time 28 day): 3 g/dL | TBIL ([…], time 28 day): 0.01 mg/dL | TC ([…], time 28 day): 67.8 mg/dL | TG ([…], time 28 day): 133.6 mg/dL | TP ([…], time 28 day): 6.2 g/dL | gamma-GTP ([…], time 28 day): 2 IU/L
